In patent publication US11046680B1, “Heteroaryl-substituted triazoles as APJ receptor agonists” (priority 2016, dated 2021):

Each molecule was assayed against human APJ receptor (Homo sapiens (Human), UniProt P35414) (assay: biochemical). Conditions: [35S]GTPγS binding, CHO membranes expressing human APJ receptor; read-out: Activity hAPJ SPA EC50 IP.
Chain of human APJ receptor (P35414 whole entry): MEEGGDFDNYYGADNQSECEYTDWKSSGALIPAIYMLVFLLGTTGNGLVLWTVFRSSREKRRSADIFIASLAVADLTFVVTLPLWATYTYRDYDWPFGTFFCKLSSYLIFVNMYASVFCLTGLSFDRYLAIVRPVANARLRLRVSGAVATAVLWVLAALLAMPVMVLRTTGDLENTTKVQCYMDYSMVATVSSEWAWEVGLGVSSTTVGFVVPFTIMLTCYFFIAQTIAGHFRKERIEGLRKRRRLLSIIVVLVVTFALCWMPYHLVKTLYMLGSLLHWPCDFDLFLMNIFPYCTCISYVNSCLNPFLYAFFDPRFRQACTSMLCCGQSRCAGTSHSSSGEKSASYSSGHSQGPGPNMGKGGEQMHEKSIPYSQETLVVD
Format: biochemical
Summary of the method: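 GTPγS binding on membranes from CHO cells stably expressing FLAG-tagged human APJ, with optimized GDP, MgCl2 and NaCl; incubated 90 min at RT before imaging read-out.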
In the case of `COc1cccc(OC)c1-n1c(NS(=O)(=O)[C@@H](C)[C@H](OC)c2ncc(C)cn2)nnc1-c1ccn(C)n1` [Example 200.0, (1R,2S)-N-(4-(2,6-dimethoxyphenyl)-5-(1-methyl-1H-pyrazol-3-yl)-4H-1,2,4-triazol-3-yl)-1-methoxy-1-(5-methyl-2-pyrimidinyl)-2-propanesulfonamide], the EC50 is reported as 0.79 nM.
With `COc1cccc(OC)c1-n1c(NS(=O)(=O)[C@@H](C)[C@H](OC)c2ncc(C)cn2)nnc1-c1cnn2ccc(C)cc12` [Example 416.0, (1R,2S)-N-(4-(2,6-dimethoxyphenyl)-5-(5-methylpyrazolo[1,5-a]pyridin-3-yl)-4H-1,2,4-triazol-3-yl)-1-methoxy-1-(5-methylpyrimidin-2-yl)propane-2-sulfonamide] the EC50 was 8.4 nM.
In the case of `COc1cccc(OC)c1-n1c(NS(=O)(=O)[C@@H](C)[C@H](OC)c2ncc(C)cn2)nnc1-c1ccnc2ccccc12` [Example 417.0], the EC50 is reported as 510 nM.
In the case of `COc1cccc(OC)c1-n1c(NS(=O)(=O)[C@@H](C)[C@H](C)c2ncc(C)cn2)nnc1-c1noc2ccccc12` [Example 77.0, (2S,3R)-N-(5-(benzo[d]isoxazol-3-yl)-4-(2,6-dimethoxyphenyl)-4H-1,2,4-triazol-3-yl)-3-(5-methylpyrimidin-2-yl)butane-2-sulfonamide], the EC50 is reported as 4.1 nM.
Molecule `COCC1(n2c(NS(=O)(=O)[C@@H](C)[C@H](OC)c3ncc(Cl)cn3)nnc2-c2nn(C)c3c2CCCC3)CCC1` [Example 518.0] has an EC50 of 92 nM.
`CCc1csc(-c2nnc(NS(=O)(=O)CCc3ncc(F)cn3)n2-c2c(OC)cccc2OC)n1` [Example 97.0, N-(4-(2,6-dimethoxyphenyl)-5-(4-ethylthiazol-2-yl)-4H-1,2,4-triazol-3-yl)-2-(5-fluoropyrimidin-2-yl)ethanesulfonamide] showed an EC50 of 7 nM.
`COc1cccc(OC)c1-n1c(NS(=O)(=O)[C@H](C)[C@H](C)c2ncc(F)cn2)nnc1-c1nc(C)cs1` (single isomer, unassigned) [Example 165.0] was tested, and the EC50 was 110 nM.
`Cn1ccc(-c2nnc(NS(=O)(=O)[C@@H]3C[C@H](O)CN(c4ncc(F)cn4)C3)n2-c2c(F)cccc2F)n1` (single isomer, unassigned) [Example 299.0, (3R,5S)-N-(4-(2,6-difluorophenyl)-5-(1-methyl-1H-pyrazol-3-yl)-4H-1,2,4-triazol-3-yl)-1-(5-fluoro-2-pyrimidinyl)-5-hydroxy-3-piperidinesulfonamide or (3S,5R)-N-(4-(2,6-difluorophenyl)-5-(1-methyl-1H-pyrazol-3-yl)-4H-1,2,4-triazol-3-yl)-1-(5-fluoro-2-pyrimidinyl)-5-hydroxy-3-piperidinesulfonamide] was tested, and the EC50 was 520 nM.
With `COc1cccc(OC)c1-n1c(NS(=O)(=O)[C@@H](C)[C@H](C)c2ncc(C)cn2)nnc1-c1cc2n(n1)CCC2` [Example 219.0, (2S,3R)-N-(5-(5,6-dihydro-4H-pyrrolo[1,2-b]pyrazol-2-yl)-4-(2,6-dimethoxyphenyl)-4H-1,2,4-triazol-3-yl)-3-(5-methyl-2-pyrimidinyl)-2-butanesulfonamide] the EC50 was 1.7 nM.
`COc1cccc(OC)c1-n1c(NS(=O)(=O)CCc2ccc(Cl)cc2)nnc1-c1csc(C)n1` [Example 149.0, 2-(4-chlorophenyl)-N-(4-(2,6-dimethoxyphenyl)-5-(2-methylthiazol-4-yl)-4H-1,2,4-triazol-3-yl)ethanesulfonamide] was tested, and the EC50 was 27 nM.
“(1R,2S)-N-(4-(2,6-dimethoxyphenyl)-5-(1-methyl-1H-pyrazol-3-yl)-4H-1,2,4-triazol-3-yl)-1-(5-fluoro-2-pyridinyl)-1-hydroxy-2-propanesulfonamide and (1S,2R)-N-(4-(2,6-dimethoxyphenyl)-5-(1-methyl-1H-pyrazol-3-yl)-4H-1,2,4-triazol-3-yl)-1-(5-fluoro-2-pyridinyl)-1-hydroxy-2-propanesulfonamide [Example 25.0]” showed an EC50 of 15 nM.
Work on `COc1cccc(OC)c1-n1c(NS(=O)(=O)[C@H](C)Cc2ccc(C#N)cn2)nnc1-c1nc(C)cs1` (single isomer, unassigned) [Example 12.0, (2R)-1-(5-Cyano-2-pyridinyl)-N-(4-(2,6-dimethoxyphenyl)-5-(4-methyl-1,3-thiazol-2-yl)-4H-1,2,4-triazol-3-yl)-2-propanesulfonamide or (2S)-1-(5-cyano-2-pyridinyl)-N-(4-(2,6-dimethoxyphenyl)-5-(4-methyl-1,3-thiazol-2-yl)-4H-1,2,4-triazol-3-yl)-2-propanesulfonamide] yielded an EC50 of 9.4 nM.
`COc1cccc(OC)c1-n1c(NS(=O)(=O)[C@@H](C)[C@H](OC)c2ncc(Cl)cn2)nnc1-c1noc2ccccc12` [Example 83.0, (1R,2S)-N-(5-(benzo[d]isoxazol-3-yl)-4-(2,6-dimethoxyphenyl)-4H-1,2,4-triazol-3-yl)-1-(5-chloropyrimidin-2-yl)-1-methoxypropane-2-sulfonamide] showed an EC50 of 1.9 nM.
`COc1cccc(OC)c1-n1c(NS(=O)(=O)[C@@H](C)[C@H](C)c2ncc(Cl)cn2)nnc1-c1cc(C)on1` [Example 498.0, (2S,3R)-3-(5-chloropyrimidin-2-yl)-N-(4-(2,6-dimethoxyphenyl)-5-(5-methylisoxazol-3-yl)-4H-1,2,4-triazol-3-yl)butane-2-sulfonamide] gave an EC50 of 0.44 nM.
For `CCS(=O)(=O)Nc1nnc(-c2ccn(C)n2)n1-c1c(OC)cccc1OC` [Example 267.0, N-(4-(2,6-dimethoxyphenyl)-5-(1-methyl-1H-pyrazol-3-yl)-4H-1,2,4-triazol-3-yl)ethanesulfonamide], the EC50 was 82 nM.
Molecule `COc1ccc([C@@H](OC)[C@H](C)S(=O)(=O)Nc2nnc(-c3ccn(C)n3)n2-c2c(OC)ncnc2OC)nc1` [Example 455.0, (1R,2S)-N-(4-(4,6-dimethoxy-5-pyrimidinyl)-5-(1-methyl-1H-pyrazol-3-yl)-4H-1,2,4-triazol-3-yl)-1-methoxy-1-(5-methoxy-2-pyridinyl)-2-propanesulfonamide] has an EC50 of 5.7 nM.
`CO[C@H]1CCC[C@@H](OC)C1n1c(NS(=O)(=O)[C@@H](C)[C@H](C)c2ncc(Cl)cn2)nnc1-c1cnn2ccccc12` (stereo partly drawn) [Example 442.0, (2S,3R)-3-(5-chloropyrimidin-2-yl)-N-(4-((1r,2R,6S)-2,6-dimethoxycyclohexyl)-5-(pyrazolo[1,5-a]pyridin-3-yl)-4H-1,2,4-triazol-3-yl)butane-2-sulfonamide] was tested, and the EC50 was 190 nM.
`COc1cccc(OC)c1-n1c(NS(=O)(=O)CCc2ccc(Cl)cc2)nnc1-c1ncc(C)s1` [Example 143.0, 2-(4-chlorophenyl)-N-(4-(2,6-dimethoxyphenyl)-5-(5-methylthiazol-2-yl)-4H-1,2,4-triazol-3-yl)ethanesulfonamide] was tested, and the EC50 was 236 nM.
In the case of `CC(C)O[C@@H](c1ncc(Cl)cn1)[C@H](C)S(=O)(=O)Nc1nnc(-c2cnn(C)c2)n1C1CC1` [Example 536.0, (1S,2S)-1-(5-chloro-2-pyrimidinyl)-N-(4-cyclopropyl-5-(1-methyl-1H-pyrazol-4-yl)-4H-1,2,4-triazol-3-yl)-1-(2-propanyloxy)-2-propanesulfonamide], the EC50 is reported as 70 nM.
With `CCO[C@H](c1ncc(C)cn1)[C@H](C)S(=O)(=O)Nc1nnc(-c2cc3n(n2)CCC3)n1-c1c(OC)cccc1OC` [Example 217.0, (1R,2S)-N-(5-(5,6-dihydro-4H-pyrrolo[1,2-b]pyrazol-2-yl)-4-(2,6-dimethoxyphenyl)-4H-1,2,4-triazol-3-yl)-1-ethoxy-1-(5-methyl-2-pyrimidinyl)-2-propanesulfonamide] the EC50 was 2.8 nM.
